EP4545091A1 (priority 2023, dated 2025)
Bridges are numbered along the chain shown (N, C = ends).

Legend:
Omicron XBB.1.5 spike = format: cell-based, SARS-CoV-2
[1] = tested on: SARS-CoV-2 Omicron BA.1 variant; conditions: 48 h

## VAACNLPIVRGPCRAFIQLWAFDAVKGKCVLFPYGGCQGNGNKFYSEKECREYCGVPGDGD (disulfide 4-54, 13-37, 29-50) [Trypstatin]
Omicron XBB.1.5 spike
  activity against Omicron XBB.1.5 variant in a pseudoparticle assay: verified activity
[1]
  IC50: 120 nM
